Experimental data as given in PubChem BioAssay (NCI).
Several values for one entry are separate records, joined by “and”; a condition that tells them apart may be missing. Identical values can stand only once.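 Cells were grown in 96-well plates and exposed to each compound for 48 hours at five concentrations; endpoints were interpolated linearly between bracketing concentrations, or set to the highest concentration if not reached. At the GI50, growth is halved. TGI: total growth inhibition.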

Key:
Assay in all cases: NCI tumour cell line growth inhibition, 48 h
NCI-H522 lung = test system: NCI-H522 lung
BT-549 breast = test system: BT-549 breast
CAKI-1 renal = test system: CAKI-1 renal
RPMI-8226 leukemia = test system: RPMI-8226 leukemia
MDA-MB-435 = test system: MDA-MB-435
MDA-N = test system: MDA-N
SN12C renal = test system: SN12C renal
OVCAR-4 ovarian = test system: OVCAR-4 ovarian
MOLT-4 leukemia = test system: MOLT-4 leukemia
NCI-H226 lung = test system: NCI-H226 lung

SMILES | TGI (NCI-H522 lung) [µM] | TGI (BT-549 breast) | TGI (CAKI-1 renal) [µM] | TGI (RPMI-8226 leukemia) | TGI (MDA-MB-435) [µM] | TGI (MDA-N) [µM] | TGI (SN12C renal) [µM] | TGI (OVCAR-4 ovarian) [µM] | TGI (MOLT-4 leukemia) [µM] | TGI (NCI-H226 lung) [µM] | GI50 (BT-549 breast)
CCOC(=O)C1(C(F)(F)F)N=C(CC)OC(N2CCOCC2)=N1 (stereo not drawn) | > 100 | > 100 µM | > 100 | > 100 µM | > 100 | > 100 | > 100 | > 100 | > 100 |  | 
CCOP(=O)(OCC)C(C)(CC)NC(=O)C(C(F)(F)F)C(F)(F)F (stereo not drawn) |  | 99.7 µM and > 100 µM | > 100 | > 81.6 µM and 59.7 µM | > 100 | > 100 | > 100 | > 100 | > 100 | > 100 | 19.3 µM and 3.87 µM
O=C(CC1Sc2ccccc2NC1=O)Nc1ccc(Cl)cc1 (stereo not drawn) | > 100 |  | > 100 | > 100 µM |  |  | > 100 | 47.3 | > 100 | > 100 | 
C/C(Nc1ccc(Cl)cc1Cl)=C1/CCOC1=O | > 100 | 63.3 µM |  | > 100 µM | > 100 |  | > 100 | > 100 | > 100 | > 100 | 
COc1ccc(C(O)CC(O)(C(F)(F)F)C(F)(F)F)cc1 (stereo not drawn) | > 100 |  | 55.1 | 57.2 µM | > 100 | > 100 | 60.8 | > 100 | > 100 | > 100 | 
O=C(/C=C/c1cccs1)c1ccccc1Cl | 15 |  | 23 | 61.9 µM | 25.5 | 33.9 | 30.2 | 26.8 | > 23.4 | > 65.7 | 
CSc1ccc(/C=C2\N=C(c3ccccc3)N(/N=C/c3cc4cc(C)ccc4nc3Cl)C2=O)cc1 |  | 56.5 µM | 45.3 | > 100 µM | 26.1 | 34.5 | 35.6 | 39.3 | 37.2 |  | 
CN1C(=O)C(O)CC1c1cccc(C(F)(F)F)c1 (stereo not drawn) | > 100 | > 100 µM | > 100 | > 100 µM | > 100 |  | > 100 | > 100 | > 100 | > 100 | 
CCOC(=O)c1cn(C)c(=S)n2c1nc1ccccc12 |  | > 100 µM | > 100 | 95.6 µM | > 100 |  | > 100 | > 100 | > 100 | > 100 | 
CCOC(=O)C(=O)C(=O)NN(C)C1=NCCN1 | > 100 | > 100 µM |  | > 100 µM | > 100 | > 100 | > 100 | > 100 | > 100 | > 100 | 
Cc1ccc(S(=O)(=O)n2cc(C#N)c(C#N)c2)cc1 | 40 | 45.2 µM | 59.1 |  | 45.6 | 70.7 | 69.1 | > 100 | > 100 |  | 
CCCNc1ncnc2[nH]ncc12 | > 100 | > 100 µM | > 100 | > 100 µM | > 100 | > 100 | > 100 | > 100 | > 100 |  | 
